# Measurements reported in ChEMBL document CHEMBL1201862, “PubChem BioAssay data set” (2004).
#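 Exposure lasted 48 hours, with cells grown in 96-well plates and compounds tested at five concentrations. GI50: concentration for 50% inhibition of growth.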 Active and inactive are the calls of the source. Rule as the data show it: active = GI50 up to about 1.1 µM and inactive = higher.
# How the values were obtained:
# Assay in all cases: NCI anticancer screen, dose series, 48 h
# [1] = test system: IGROV-1
# [2] = test system: BT-549
# [3] = test system: CAKI-1
# [4] = test system: SR
# [5] = test system: SF-268
# [6] = test system: HCT-15
# [7] = test system: NCI-H460
# [8] = test system: SW-620
# [9] = test system: SK-OV-3
# [10] = test system: OVCAR-8
# [11] = test system: Hs-578T
# [12] = test system: K562
# [13] = test system: MDA-MB-435
# [14] = test system: LOX IMVI
# [15] = test system: OVCAR-4
# [16] = test system: SF-539
# [17] = test system: SNB-19
# [18] = test system: DLD-1
# [19] = test system: KM-20L2
SMILES,GI50 [1],GI50 [2],GI50 [3],GI50 [4],GI50 [5],GI50 [6],GI50 [7],GI50 [8],GI50 [9],GI50 [10],GI50 [11],GI50 [12],GI50 [13],GI50 [14],GI50 [15],GI50 [16],GI50 [17],GI50 [18],GI50 [19]
Sc1nnc(SCc2ccccc2Cl)c2nc[nH]c12,> 100 µM (inactive),> 100 µM (inactive),> 100 µM (inactive),> 100 µM (inactive),> 100 µM (inactive),> 100 µM,> 100 µM (inactive),> 100 µM (inactive),> 100 µM (inactive),> 100 µM (inactive),> 100 µM (inactive),> 100 µM (inactive),> 100 µM (inactive),> 100 µM (inactive),> 100 µM (inactive),> 100 µM (inactive),> 100 µM (inactive),–,–
C[Si](C)(C)C#Cc1cc(-c2nc3ccccc3s2)ccc1N,< 0.01 µM (active),18.3 µM (inactive),14.2 µM (inactive),26.4 µM (inactive),16.8 µM (inactive),16.9 µM,15.9 µM (inactive),18.1 µM (inactive),19 µM (inactive),16.7 µM (inactive),20.8 µM (inactive),27.8 µM (inactive),18.3 µM (inactive),17.8 µM (inactive),14.9 µM (inactive),18.7 µM (inactive),18.7 µM (inactive),–,–
COP(=O)(OC)c1ccc(NCc2cc(O)ccc2O)cc1,30.3 µM (inactive),17.9 µM (inactive),19.2 µM (inactive),14.3 µM (inactive),17.6 µM (inactive),21.3 µM,22.1 µM (inactive),42 µM (inactive),> 100 µM (inactive),26.8 µM (inactive),24.8 µM (inactive),30.5 µM (inactive),26.8 µM (inactive),26.3 µM (inactive),27 µM (inactive),21.2 µM (inactive),37.8 µM (inactive),–,–
O=C(/C=C/c1ccccc1)CSc1nc2ccc(I)cc2c(=O)n1Cc1ccccc1,7.26 µM (inactive),> 77.4 µM (inactive),1.71 µM (inactive),8.81 µM (inactive),14.8 µM (inactive),19.5 µM,15.6 µM (inactive),38.6 µM (inactive),29.6 µM (inactive),25.5 µM (inactive),25.3 µM (inactive),13.9 µM (inactive),38.9 µM (inactive),37 µM (inactive),21.3 µM (inactive),39.9 µM (inactive),42.6 µM (inactive),–,–
COC(=O)CC(CC(=O)C(=O)OC)C(=O)OC (stereo not drawn),> 100 µM (inactive),–,> 100 µM (inactive),–,–,> 100 µM,> 100 µM (inactive),> 100 µM (inactive),> 100 µM (inactive),> 100 µM (inactive),–,> 100 µM (inactive),–,> 100 µM (inactive),–,> 100 µM (inactive),> 100 µM (inactive),> 100 µM (inactive),> 100 µM (inactive)
COc1ccc(C(O)/C(=N/N)c2nc3ccc(Cl)cc3nc2O)cc1 (stereo not drawn),> 100 µM (inactive),> 100 µM (inactive),> 100 µM (inactive),> 100 µM (inactive),> 100 µM (inactive),> 100 µM,> 100 µM (inactive),> 100 µM (inactive),> 100 µM (inactive),> 100 µM (inactive),> 100 µM (inactive),> 100 µM (inactive),> 100 µM (inactive),> 100 µM (inactive),> 100 µM (inactive),> 100 µM (inactive),> 100 µM (inactive),–,–
O=C(/C=C/c1ccc(OCc2cccc(Cl)c2)cc1)NO,11.9 µM (inactive),24.8 µM (inactive),13.5 µM (inactive),3.55 µM (inactive),24.3 µM (inactive),5.05 µM,15.9 µM (inactive),10.1 µM (inactive),17.9 µM (inactive),6.31 µM (inactive),35 µM (inactive),16.6 µM (inactive),18.5 µM (inactive),6.28 µM (inactive),13.5 µM (inactive),17.2 µM (inactive),18 µM (inactive),–,–
CN(C(=N)c1ccccc1)c1ccccc1,> 100 µM (inactive),–,–,–,–,> 100 µM,–,> 100 µM (inactive),> 100 µM (inactive),> 100 µM (inactive),–,> 100 µM (inactive),–,84.7 µM (inactive),> 100 µM (inactive),> 100 µM (inactive),> 100 µM (inactive),> 100 µM (inactive),> 100 µM (inactive)
CC1/C=C/C=C/CC/C=C/C=C/C=C/C=C/C(OC2OC(C)C(O)C(N)C2O)CC2OC(CC(O)C(O)CCC(O)CC(O)CC(O)CC(=O)OC(C)C(C)C1O)CC(O)C2C(=O)O (stereo not drawn),17.6 µM (inactive),17 µM (inactive),17.5 µM (inactive),16.9 µM (inactive),24.9 µM (inactive),27.3 µM,17.5 µM (inactive),20.7 µM (inactive),23.2 µM (inactive),21.6 µM (inactive),24.8 µM (inactive),34.4 µM (inactive),17.6 µM (inactive),18.2 µM (inactive),15.2 µM (inactive),16.1 µM (inactive),18.3 µM (inactive),–,–
N#CCCN(CCCN(CCCN(C(=O)Nc1ccccc1)c1ccccc1)C(=O)Nc1ccccc1)C(=O)Nc1ccccc1,> 8.75 µM (inactive),> 8.75 µM (inactive),> 8.75 µM (inactive),0.998 µM (active),> 8.75 µM (inactive),> 100 µM,> 8.75 µM (inactive),> 8.75 µM (inactive),> 8.75 µM (inactive),> 8.75 µM (inactive),73.5 µM (inactive),> 8.75 µM (inactive),> 8.75 µM (inactive),> 100 µM (inactive),> 100 µM (inactive),> 8.75 µM (inactive),> 8.75 µM (inactive),–,–
COC12COC(=O)C1C(c1ccc3c(c1)OCO3)c1cc3c(cc1O2)OCO3 (stereo not drawn),20.8 µM (inactive),15.6 µM (inactive),> 73.8 µM (inactive),5.38 µM (inactive),27.9 µM (inactive),7.08 µM,10.5 µM (inactive),8.49 µM (inactive),14.2 µM (inactive),26.1 µM (inactive),19.5 µM (inactive),4.21 µM (inactive),2.72 µM (inactive),12.8 µM (inactive),36.5 µM (inactive),10.7 µM (inactive),54.1 µM (inactive),–,–
CCOC(=O)c1ccc(C(=O)/C(C(C)=O)=C2\CCCN2C)n1C,> 100 µM (inactive),> 100 µM (inactive),> 100 µM (inactive),28.9 µM (inactive),> 100 µM (inactive),68.7 µM,> 100 µM (inactive),69.7 µM (inactive),30.7 µM (inactive),> 100 µM (inactive),> 100 µM (inactive),62.7 µM (inactive),> 100 µM (inactive),53.8 µM (inactive),71.1 µM (inactive),0.303 µM (active),73.3 µM (inactive),–,–
O=C1C([N-]S(=O)(=O)c2ccccc2)=C([n+]2ccc(Cc3ccccc3)cc2)C(=O)c2ccccc21,1.79 µM (inactive),1.36 µM (inactive),1.73 µM (inactive),2.59 µM (inactive),1.71 µM (inactive),1.69 µM,0.535 µM (active),0.641 µM (active),6.12 µM (inactive),2.04 µM (inactive),2.19 µM (inactive),0.359 µM (active),0.18 µM (active),0.424 µM (active),1.56 µM (inactive),1.79 µM (inactive),1.71 µM (inactive),–,–
C/C(=N\Nc1nc2ccccc2[nH]1)c1cccc[n+]1[O-],63.4 µM (inactive),> 100 µM (inactive),34.5 µM (inactive),30.1 µM (inactive),> 100 µM (inactive),51.5 µM,49.2 µM (inactive),> 100 µM (inactive),> 100 µM (inactive),> 100 µM (inactive),> 100 µM (inactive),> 100 µM (inactive),> 100 µM (inactive),56.6 µM (inactive),> 100 µM (inactive),> 100 µM (inactive),> 100 µM (inactive),–,–
COc1ccc(/N=N/c2c(C)c(C#N)c(=S)n(C3OC(CO)C(O)C(O)C3O)c2C)cc1 (stereo not drawn),54.1 µM (inactive),32.7 µM (inactive),56.2 µM (inactive),23.4 µM (inactive),45.9 µM (inactive),53.1 µM,35 µM (inactive),44.1 µM (inactive),> 100 µM (inactive),–,41.4 µM (inactive),29 µM (inactive),38.8 µM (inactive),56.4 µM (inactive),57.4 µM (inactive),48.3 µM (inactive),38.3 µM (inactive),–,–
C#C[C@]1(O)CC[C@H]2[C@@H]3CCC4=C/C(=N/NC(=O)c5cccc6c(=O)c7ccccc7[nH]c56)CCC4[C@H]3CC[C@@]21C (stereo partly drawn),82.2 µM (inactive),19.2 µM (inactive),> 100 µM (inactive),28.4 µM (inactive),> 100 µM (inactive),73.8 µM,–,49.8 µM (inactive),> 100 µM (inactive),21.3 µM (inactive),32.1 µM (inactive),73.5 µM (inactive),38.7 µM (inactive),58.1 µM (inactive),45.8 µM (inactive),34.7 µM (inactive),86.3 µM (inactive),–,–
N=C(N)N/N=C/c1c(Cl)nc2sccn12,53.5 µM (inactive),26.9 µM (inactive),52.6 µM (inactive),22.9 µM (inactive),24.2 µM (inactive),> 10 µM,16.7 µM (inactive),18 µM (inactive),60.1 µM (inactive),50.4 µM (inactive),18.2 µM (inactive),25.6 µM (inactive),36.1 µM (inactive),18.9 µM (inactive),19.2 µM (inactive),19.8 µM (inactive),35.8 µM (inactive),–,–
